Test results published in article PMC4545913, “Dual EZH2 and EHMT2 histone methyltransferase inhibition increases biological efficacy in breast cancer cells” (Clinical Epigenetics, 2015).

Tested on: DOHH2
Test: Lymphoma cell growth, cell counting following propidium iodide staining
Assay type: cell-based
Settings: Homo sapiens, DOHH-2, EZH2 W.T., 48 h, PI negative cell count
Procedure: For clonogenic assays, cells were treated with compound for 48 h, media were removed and replaced with fresh media for a further 12 days to measure colony formation. For cell viability assays, lymphoma cells were plated at 20,000 cells in 200 μl per well in U-bottom 96 well plates in RPMI medium +20 % FCS. Cells were re-suspended 48 h later, diluted 10-fold in PBS + propidium iodide (PI) and the concentration of PI negative cells was counted using an Attune flow cytometer with autosampler. Breast cancer cells were seeded at a density of 10,000 cells/well in a sterile 96 clear-well plate with 150 μl of DMEM (+10 % FCS and 2 mM L-Glutamine). Each compound treatment was performed in triplicate for 72 h at concentrations of 100 nM and 1, 5, 10 and 50 μM in 100 μl of full-medium. After 72 h, 20 μl of MTT solution (3 mg of MTT Formazan, Sigma/1 ml PBS) was added to the medium and incubated for 4 h at 37 °C in a CO2 incubator. The MTT-product was solubilised with 100 μl DMSO, and for 1 h, incubated in the dark at room temperature. The optical density was read at 570 nm with PHERAstar.

`COc1cc2nc(N3CCN(C)CC3)nc(NC3CCN(Cc4ccccc4)CC3)c2cc1OC` [HKMTI-1-005] was tested, and the IC50 was 3.26 µM.
